Results: patent US10420815B2, “Combinational therapy for synergistic inhibition of gram-positive and gram-negative bacteria” (priority 2015, dated 2019)
“And” between values parts separate entries of the source, which are not always exact repeats. Identical values can stand only once. “Also recorded” adds a separate entry of the source. Like-named read-outs stand apart in the source and are kept apart here. Blank lines part the entries; values can stand above or below the compound they belong to.

Experiments:
Assay type in all cases: cell-based, Staphylococcus aureus
[1] = test system: MRSA (ATCC 33593); test: microbe, parasite or virus in culture
Text: (§1) MRSA (ATCC 33593), MSSA (ATCC 29213), and MRSA USA300 (BAA-1680) strains were purchased from the American Type Culture Collection (ATCC; Manassas, Va.). Eight clinical isolates of MRSA were obtained from the Culture Collection of Antimicrobial Resistant Microbes, Korea National Research Resource Center (KNRRC). Salmonella enterica Typhimurium LT2 was purchased from ATCC, and Escherichia coli O157:H7 is a kind gift from Dr. Sangryeol Ryu (Seoul National University, South Korea). All S. aureus strains were maintained in Trypticase Soy (TS) medium, and E. coli O157:H7 and Salmonella were routinely grown aerobically on Luria-Bertani (LB) media at 37° C. For measuring growth kinetics, an overnight culture of MRSA in Mueller-Hinton (MH) broth was diluted 100-fold in fresh MH broth and cultured until early exponential phase. The culture (200 μl) was transferred to each well of a sterile 96-well plate and incubated at 37° C. with bacitracin alone, alkyl gallate alone, and combination of bacitracin/alkyl gallates at various concentrations. The optical density at 600 nm (OD600) was measured every hour with FLUOstar® Omega (BMG Labtech, Germany).
(§2) Broth micro dilution assays were performed to determine the minimum inhibitory concentrations (MIC) accordance to the M7-A7 protocol of the Clinical and Laboratory Standards Institute (CLSI) guidelines^28. The susceptibility test was carried out with an initial bacterial inoculum of 1.5×10^5 CFU ml^−1. Alkyl gallates and bacitracin were serially diluted in a polystyrene 96 well plate and the plate was incubated at 37° C. for 24 h. Minimum bactericidal concentration (MBC) was determined by spotting 10 μl of cultures from MIC tests onto MH agar and incubated aerobically at 37° C.
(§3) MICs were determined with MRSA and methicillin-sensitive S. aureus (MSSA) using a broth dilution method as described above.
(§4) MRSA and MSSA were cultured overnight with antioxidants (0.5 μg/ml) and bacitracin at various concentrations and 10 μL of the culture was spotted on MH agar plates and incubated aerobically at 37° C. to observe the bacterial viability. The results in FIGS. 9A, 9B, 9C and 9D (photographs of plates) show the Minimal Bactericidal Concentrations (MBCs) for indicated antioxidants. Bacitracin killed MRSA and MSSA at concentrations greater than or equal to 2 μg/mi.

[2] = test system: MSSA (ATCC 29213); test: MIC (broth dilution) and MBC (spotting) of phenolic antioxidants and bacitracin; conditions: for MIC: antioxidant alone
Text: as §1, §2, §3, §4

[3] = test system: MRSA (normal MRSA strain, not USA300); test: MRSA growth (optical density) with bacitracin and phenolic antioxidants; conditions: for growth of MRSA with bacitracin plus antioxidant: bacitracin 0.002 μg/mL, antioxidant 0.5 μg/mL, FIG. 6; for optical density of MRSA after 18 h culture: inhibition of growth in combination with bacitracin: bacitracin 0.002 μg/ml (ca. 0.0002 U), antioxidant 0.5 μg/ml, FIG. 8
Text: as §1
MRSA were grown with bacitracin (0.002 μg/mL) with antioxidant (as shown) at 0.5 μg/mL.
FIG. 7A is growth with no added bacitracin or lauryl gallate.
The optical density of MRSA was measured after 18 h culture with bacitracin (0.002 μg/ml) and antioxidants (as indicated at 0.5 μg/ml). Also measured were controls with no additions, with bacitracin alone and with antioxidant alone. FIGS. 8A, 8B, 8C and 8D are graphs illustrating the results.

[4] = test system: MRSA 3795; test: microbe, parasite or virus in culture; conditions: Staphylococcus aureus
Text: as §1, §2

[5] = test system: MRSA 3799; test: microbe, parasite or virus in culture; conditions: Staphylococcus aureus
Text: as §1, §2

[6] = test system: MRSA 3823; test: microbe, parasite or virus in culture; conditions: Staphylococcus aureus
Text: as §1, §2

[7] = test system: MRSA 3865; test: microbe, parasite or virus in culture; conditions: Staphylococcus aureus
Text: as §1, §2

[8] = test system: MRSA 3876; test: microbe, parasite or virus in culture; conditions: Staphylococcus aureus
Text: as §1, §2

[9] = test system: MRSA 3903; test: microbe, parasite or virus in culture; conditions: Staphylococcus aureus
Text: as §1, §2

[10] = test system: MRSA 3A585; test: microbe, parasite or virus in culture; conditions: Staphylococcus aureus
Text: as §1, §2

[11] = test system: MRSA 3095; test: microbe, parasite or virus in culture; conditions: Staphylococcus aureus
Text: as §1, §2

[12] = test system: MRSA USA300 (BAA-1680); test: microbe, parasite or virus in culture; conditions: agent alone
Text: as §1, §2

[13] = Staphylococcus aureus, MRSA, antioxidant alone, read-out: MIC
[14] = Staphylococcus aureus, read-out: MIC
[15] = MRSA 3795 (human/nose), read-out: MIC
[16] = MRSA 3799 (human/nose), read-out: MIC
[17] = MRSA 3823 (human/nose), read-out: MIC
[18] = MRSA 3865 (human/skin), read-out: MIC
[19] = MRSA 3876 (human/skin), read-out: MIC
[20] = MRSA 3903 (human/skin), read-out: MIC
[21] = MRSA 3A585 (human/blood), read-out: MIC

Compound: Cc1cc(C(C)(C)C)c(O)c(C(C)(C)C)c1 [Butylated hydroxytoluene, butylated hydroxytoluene]
- synergistic killing with bacitracin ([1]; MRSA, antioxidant 0.5 μg/ml): did not generate any synergistic killing
- MIC [1, 13]: > 1020 µg/mL
- MIC [2, 14]: 1020 µg/mL
- synergistic killing with bacitracin ([2]; antioxidant 0.5 μg/ml): did not generate any synergistic killing
- MIC [2]: >1024 µg/mL
- growth of MRSA with bacitracin plus antioxidant [3]: did not show any synergistic effects with bacitracin
- optical density of MRSA after 18 h culture: inhibition of growth in combination with bacitracin ([3]; listed as BHT): no synergistic inhibition of growth; also recorded: did not show any synergistic antimicrobial effects

Compound: Oc1cc(O)c2c(c1)OC(c1ccc(O)c(O)c1)C(O)C2 (stereo not drawn) [Catechin(+), catechin]
- MIC ([1]; MRSA, antioxidant alone): >1024 µg/mL
- MIC [2]: >1024 µg/mL

Compound: O=C(O[C@@H]1Cc2c(O)cc(O)cc2O[C@@H]1c1cc(O)c(O)c(O)c1)c1cc(O)c(O)c(O)c1 [Epigallocatechin gallate, epigallocatechin gallate]
- fold decrease of bacitracin MBC by antioxidant ([1]; MRSA, antioxidant 0.5 μg/ml, compared to bacitracin alone): > 32 fold
- MIC ([1]; MRSA, antioxidant alone): 512 µg/mL and 256 µg/mL
- fold decrease of bacitracin MBC by antioxidant ([2]; antioxidant 0.5 μg/ml, compared to bacitracin alone): 16 fold
- MIC [2]: 128 µg/mL and 64 µg/mL
- growth of MRSA with bacitracin plus antioxidant [3]: significantly inhibited the growth of MRSA
- optical density of MRSA after 18 h culture: inhibition of growth in combination with bacitracin [3]: significantly inhibited MRSA

Compound: O=C(O)c1cc(O)c(O)c(O)c1 [Gallic acid, gallic acid]
- MBC [12]: 256 µg/mL
- MIC [12]: 128 µg/mL
- MIC ([11]; MRSA): > 1020 µg/mL
- MIC ([4]; MRSA): > 1020 µg/mL
- MIC ([5]; MRSA): > 1020 µg/mL
- MIC ([6]; MRSA): > 1020 µg/mL
- MIC ([7]; MRSA): > 1020 µg/mL
- MIC ([8]; MRSA): > 1020 µg/mL
- MIC ([9]; MRSA): > 1020 µg/mL
- MIC ([10]; MRSA): > 1020 µg/mL
- MIC ([1]; Staphylococcus aureus): > 1020 µg/mL
- MIC [2, 14]: > 1020 µg/mL

Compound: COc1ccc([C@@H]2CC(=O)c3c(O)cc(O[C@@H]4O[C@H](CO[C@@H]5O[C@@H](C)[C@H](O)[C@@H](O)[C@H]5O)[C@@H](O)[C@H](O)[C@H]4O)cc3O2)cc1O [Hesperedin, hesperidin]
- MIC ([1]; MRSA, antioxidant alone): >1024 µg/mL
- MIC [2]: >1024 µg/mL

Next, values leading:

- MIC [4, 15]: ≥ 128 µg/mL
- MIC [5, 16]: ≥ 128 µg/mL
- MIC [6, 17]: ≥ 128 µg/mL
- MIC [7, 18]: ≥ 128 µg/mL
- MIC [8, 19]: < 0.12 µg/mL
- MIC [9, 20]: ≥ 128 µg/mL
- MIC [10, 21]: ≤ 0.25 µg/mL
Compound: O=C(N[C@H](CO)[C@H](O)c1ccc([N+](=O)[O-])cc1)C(Cl)Cl [CL, chloramphenicol]

- MIC [1, 13]: > 1020 µg/mL
- MIC [2, 14]: > 1020 µg/mL
Compound: O=C(O)/C=C/c1ccc(O)c(O)c1 [Caffeic acid, caffeic acid]

- MIC [1, 13]: > 1020 µg/mL
- MIC [2, 14]: > 1020 µg/mL
Compound: O=c1cc(-c2ccccc2)oc2cc(O)cc(O)c12 [Chrysin, chrysin]

- MIC [1, 13]: > 1020 µg/mL
- MIC [2, 14]: > 1020 µg/mL
Compound: O=C(O)C=Cc1ccccc1 [Cinnamic acid, cinnamic acid]

- MIC ([11]; MRSA 3095 (human/skin), read-out: MIC): ≥ 128 µg/mL
- MIC [4, 15]: ≥ 128 µg/mL
- MIC [5, 16]: ≥ 128 µg/mL
- MIC [6, 17]: ≥ 128 µg/mL
- MIC [7, 18]: ≥ 128 µg/mL
- MIC [8, 19]: ≥ 128 µg/mL
- MIC [9, 20]: ≥ 128 µg/mL
- MIC [10, 21]: ≥ 4 µg/mL
Compound: CC[C@H]1OC(=O)[C@H](C)[C@@H](O[C@H]2C[C@@](C)(OC)[C@@H](O)[C@H](C)O2)[C@H](C)[C@@H](O[C@@H]2O[C@H](C)C[C@H](N(C)C)[C@H]2O)[C@](C)(O)C[C@@H](C)C(=O)[C@H](C)[C@@H](O)[C@]1(C)O [ERY, erythromycin]

- MIC [1, 13]: > 1020 µg/mL
- MIC [2, 14]: > 1020 µg/mL
Compound: Oc1cc(O)c2c(c1)O[C@H](c1ccc(O)c(O)c1)[C@H](O)C2 [Epicatechin, epicatechin]

- MIC [1, 13]: > 1020 µg/mL
- MIC [2, 14]: > 1020 µg/mL
Compound: O=c1c(O)c(-c2ccc(O)cc2O)oc2cc(O)cc(O)c12 [Morin, morin]
